Data: article PMC12297138, “Screening and Identification of Multiple Peptides Homologous to the Fusion Glycoprotein Gc of Schmallenberg Virus Able to Inhibit Viral Infection” (Transboundary and Emerging Diseases, 2025)

Key:
[1] = system: Schmallenberg virus (SBV); assay: Cotreatment assay (plaque reduction); type: cell-based; conditions: for percentage of viral inhibition at 100 μM (library screening): cotreatment, peptide 100 μM, SBV on BHK-21 cells, threshold 50% inhibition; for IC50: peptide + SBV (MOI 0.01) together on BHK-21 cells 2 h 37°C, plaques after 72 h, triplicate; for SI, Cotreatment: selectivity index CC50 value/IC50 value
Source text: Baby Hamster Kidney cells (BHK-21) (ATCC CCL-10, Manassas, VA, USA), Madin–Darby bovine kidney (MDBK, ATCC CCL-22), and Vero/hSLAM cells (ECACC 04091501, Porton Down, United Kingdom) were cultivated in Dulbecco's modified Eagle's medium (DMEM, Microtech, Naples, Italy) supplemented with 10% fetal bovine serum (FBS) (Microtech). Viruses were kindly provided by Professor Giuseppe Iovane (University Federico II, Naples, Italy). Cells were infected with a multiplicity of infection (MOI) of 0.01, and we assessed viral titers through plaque assays.
SBV titration was performed on BHK-21 cells. Briefly, BHK-21 cell monolayers in 12-well cell culture plates were infected with SBV dilutions. After 1 h of incubation, viral inocula were removed and a mixture of DMEM 10% FBS and 3% carboxymethyl cellulose (CMC) was added to all wells. After incubation for 72 h, cells were fixed with 4% formaldehyde solution and stained with 0,5% crystal violet (Sigma-Aldrich, St. Louis, MO, USA). Plaques were scored and stock virus titration was calculated as plaque forming unit (PFU)/ml.
Peptides were dissolved in water. To assess the impact of these peptides on inhibiting SBV infectivity, a very general assay (cotreatment) was performed by treating cells (5 × 10^5 cells/well) with peptides at 200, 100, 50, 25, 12.5, 6.25, and 1 μM and incubating them with the viral inoculum (MOI of 0.01) for 2 h at 37°C. To effectively inactivate nonpenetrated viruses, we treated cells with citrate buffer (pH 3.0) and then cultured BHK-21 for 72 h at 37°C/5% CO2 in DMEM enriched with 10% FBS and CMC. The monolayers were finally fixed and stained, and the plaque number was scored. The percentage of inhibition was calculated in comparison to the control group (cell infected and treated with no peptide).

[2] = system: Schmallenberg virus (SBV); assay: Virus pretreatment assay (plaque reduction); type: cell-based; conditions: for IC50: peptide + SBV (MOI 0.1) 1 h 37°C, then diluted on BHK-21 cells (final MOI 0.01), plaques after 72 h; for SI, Virus pretreatment: selectivity index CC50 value/IC50 value
Procedure: (§1) Peptide concentrations are the same as used in the initial cotreatment assay. Virus pretreatment assay: peptides were added to the virus (MOI of 0.1) for 1 h at 37°C. Following the incubation period, the mixture of virus and peptide was diluted on cells for 2 h: this process allowed the peptides to achieve a nonactive concentration while ensuring that the virus remained at an optimal final MOI of 0.01. Then, the cells underwent a 72-h incubation with CMC. Cell pretreatment: Precooled cells were treated with the peptides for 1 h, followed by the incubation of the viral inoculum (MOI of 0.01) for 2 hr at 37°C. At the end, cells were overlaid with CMC for 72 hr at 37°C. Posttreatment: Cells were treated with peptide following the viral infection (MOI of 0.01 pfu/mL) for 2 h at 37°C; then, CMC was added for 72 h at 37°C. For each treatment, the IC50, which is the peptide concentration resulting in a 50% reduction of SBV infectivity, was calculated.

[3] = system: Schmallenberg virus (SBV); assay: Attachment assay (temperature shift); type: cell-based; conditions: for IC50: BHK-21 cells, SBV MOI 0.01 and peptide simultaneously 2 h at 4°C, plaques after 72 h at 37°C; for SI, Attachment: selectivity index CC50 value/IC50 value
Procedure: (§2) Two additional assays were performed. Peptide concentrations are the same as those used in the other treatments. Attachment assay: Cells were infected with the virus (MOI 0.01) and simultaneously each peptide was inoculated for 2 h at 4°C; then, cells were left in CMC for 72 h at 37°C. Entry assay: BHK-21 monolayer was infected with SBV (MOI 0.01) for 2 h at 4°C, followed by the treatment with each peptide for 1 h at 37°C; finally, CMC was added on cells. Similarly to other assays, at the end, viral plaques were observed.

[4] = system: Schmallenberg virus (SBV); assay: Entry assay (temperature shift); type: cell-based; conditions: for IC50: BHK-21 infected with SBV MOI 0.01 2 h at 4°C, then peptide 1 h at 37°C, plaque count; for SI, Entry: selectivity index CC50 value/IC50 value
Procedure: as §2

[5] = system: Schmallenberg virus (SBV); assay: Cell pretreatment assay (plaque reduction); type: cell-based; conditions: precooled BHK-21 cells treated with peptide 1 h, then SBV MOI 0.01 for 2 h 37°C; plaques after 72 h
Procedure: as §1

[6] = system: Schmallenberg virus (SBV); assay: Posttreatment assay (plaque reduction); type: cell-based; conditions: BHK-21 cells treated with peptide after SBV infection (MOI 0.01, 2 h 37°C); plaques after 72 h
Procedure: as §1

[7] = system: BHK-21 cells; assay: MTT cytotoxicity assay; type: cell-based, Hamster; conditions: 24 h treatment, peptides 1-200 µM, read at 570 nm, triplicate
Procedure: Peptide cytotoxicity was measured by 3- (4, 5-dimethylthiazol-2-yl)-2, 5-diphenyltetrazolium bromide (MTT) assay according to manufacturer's instructions (Sigma-Aldrich, St. Louis, Missouri, United States). BHK-21 cells (4 × 10^4 cells/well) were treated with peptides at different concentrations ranging from 1 µM to 200 and, after 24 h, 100 μL of the MTT solution (5 mg/mL) was incubated for 3 h at 37°C. Then, we used DMSO (Sigma Aldrich) to dissolve tetrazolium salts under agitation. Cytotoxicity was analyzed at 570 nm, and cell viability was measured against control cells—those that received no treatment. At the end, the 50% cytotoxic concentration (CC50) was determined using GraphPad Prism software (GraphPad Software, San Diego, CA, USA).

| SMILES | percentage of viral inhibition at 100 μM (library screening) [1] | IC50 [1] [µM] | IC50 [2] [µM] | IC50 [3] [µM] | IC50 [4] [µM] | SI, Cotreatment [1] | IC50 [5] [µM] | SI, Virus pretreatment [2] | SI, Attachment [3] | SI, Entry [4] | IC50 [6] [µM] | CC50 [7] [µM] |
| --- | --- | --- | --- | --- | --- | --- | --- | --- | --- | --- | --- | --- |
| CC[C@H](C)[C@H](NC(=O)[C@H](CC(=O)O)NC(=O)[C@H](CO)NC(=O)[C@H](CCC(N)=O)NC(=O)[C@H](CC(C)C)NC(=O)[C@H](C)NC(=O)[C@H](C)NC(=O)[C@@H](NC(=O)[C@H](Cc1ccc(O)cc1)NC(=O)[C@H](CC(N)=O)NC(=O)[C@H](CCC(=O)O)NC(=O)[C@@H](NC(=O)[C@H](CC(=O)O)NC(=O)[C@@H]1CCCN1C(=O)[C@H](Cc1c[nH]cn1)NC(=O)[C@@H](N)CC(N)=O)[C@@H](C)CC)[C@@H](C)CC)C(=O)N[C@@H](C)C(=O)N[C@@H](CC(N)=O)C(=O)N[C@@H](CC(=O)O)C(=O)N[C@@H](CC(C)C)C(=O)N[C@H](C(=O)N[C@@H](CCSC)C(=O)N[C@@H](Cc1c[nH]cn1)C(=O)N[C@@H](Cc1ccc(O)cc1)C(=O)N[C@@H](Cc1ccccc1)C(=O)O)[C@@H](C)O [Gc30] | greater than 50% | 12.5 | 20 | 50 | 20 | – | – | – | – | – | – | – |
| CC[C@H](C)[C@H](NC(=O)[C@@H](NC(=O)[C@H](CC(=O)O)NC(=O)[C@H](CCCCN)NC(=O)[C@H](CCCNC(=N)N)NC(=O)[C@H](CC(N)=O)NC(=O)[C@@H](N)Cc1ccccc1)C(C)C)C(=O)N[C@@H](CC(C)C)C(=O)N[C@@H](CCCNC(=N)N)C(=O)N[C@@H](CCCNC(=N)N)C(=O)N[C@@H](CS)C(=O)N[C@@H](Cc1ccccc1)C(=O)N[C@@H](CC(=O)O)C(=O)N[C@@H](CC(N)=O)C(=O)N[C@@H](CO)C(=O)N[C@@H](Cc1ccc(O)cc1)C(=O)N[C@@H](CCC(N)=O)C(=O)N[C@@H](CO)C(=O)N[C@@H](CS)C(=O)N[C@@H](CC(C)C)C(=O)N[C@@H](CC(C)C)C(=O)N[C@@H](CC(C)C)C(=O)N[C@@H](CCC(=O)O)C(=O)N[C@@H](CCC(N)=O)C(=O)N[C@@H](CC(=O)O)C(=O)O [Gc48] | – | – | – | – | – | 2 | > 100 | 4 | 2 | 4 | > 100 | – |
| CC[C@H](C)[C@H](NC(=O)[C@@H](NC(=O)[C@H](CC(C)C)NC(=O)[C@@H](NC(=O)[C@H](CC(N)=O)NC(=O)[C@H](CC(=O)O)NC(=O)[C@H](CCC(N)=O)NC(=O)[C@H](CCC(=O)O)NC(=O)[C@H](CC(C)C)NC(=O)[C@H](CC(C)C)NC(=O)[C@H](CC(C)C)NC(=O)[C@H](CS)NC(=O)[C@H](CO)NC(=O)[C@H](CCC(N)=O)NC(=O)[C@@H](N)Cc1ccc(O)cc1)[C@@H](C)O)[C@@H](C)O)C(=O)N[C@@H](C)C(=O)N[C@@H](CO)C(=O)N[C@H](C(=O)N[C@@H](CO)C(=O)N[C@@H](Cc1c[nH]cn1)C(=O)N[C@@H](CCSC)C(=O)N[C@@H](CCC(=O)O)C(=O)N[C@H](C(=O)N[C@@H](Cc1c[nH]cn1)C(=O)N[C@@H](CCCCN)C(=O)O)C(C)C)[C@@H](C)O [Gc49] | greater than 50% | 10 | 10 | 25 | 20 | – | – | – | – | – | – | 200 |
| CC[C@H](C)[C@H](NC(=O)[C@H](CO)NC(=O)[C@@H](N)Cc1ccc(O)cc1)C(=O)N[C@@H](CCCCN)C(=O)N[C@@H](CC(C)C)C(=O)N[C@@H](CC(N)=O)C(=O)N[C@@H](CS)C(=O)N1CCC[C@H]1C(=O)N[C@@H](CC(C)C)C(=O)N[C@@H](C)C(=O)N[C@H](C(=O)N[C@@H](CCC(=O)O)C(=O)N[C@H](C(=O)N[C@H](C(=O)N[C@@H](CO)C(=O)N[C@H](C(=O)N[C@@H](CO)C(=O)N[C@H](C(=O)N[C@@H](CS)C(=O)N[C@@H](CO)C(=O)N[C@@H](C)C(=O)N[C@@H](CO)C(=O)N[C@@H](C)C(=O)N[C@@H](Cc1ccc(O)cc1)C(=O)N[C@H](C(=O)O)[C@@H](C)O)C(C)C)C(C)C)C(C)C)[C@@H](C)O)[C@@H](C)O [Gc56] | greater than 50% | 100 | 40 | 50 | 40 | – | – | – | – | – | – | 200 |
| CC[C@H](C)[C@H](NC(=O)CNC(=O)[C@H](CCC(=O)O)NC(=O)[C@H](CCCCN)NC(=O)[C@H](Cc1ccc(O)cc1)NC(=O)[C@@H](NC(=O)[C@H](CCCNC(=N)N)NC(=O)[C@H](CS)NC(=O)[C@H](CC(C)C)NC(=O)[C@H](Cc1c[nH]c2ccccc12)NC(=O)[C@@H](NC(=O)[C@H](CO)NC(=O)[C@H](CS)NC(=O)[C@H](CCCCN)NC(=O)[C@H](CCCCN)NC(=O)[C@H](CC(=O)O)NC(=O)[C@H](Cc1c[nH]cn1)NC(=O)[C@H](CCC(N)=O)NC(=O)[C@H](CCC(=O)O)NC(=O)[C@@H](NC(=O)[C@@H](N)Cc1ccc(O)cc1)[C@@H](C)CC)[C@@H](C)O)C(C)C)C(=O)N[C@@H](CO)C(=O)N[C@H](C(=O)N[C@H](C(=O)N[C@@H](Cc1ccccc1)C(=O)O)[C@@H](C)CC)C(C)C [Gc59] | – | – | – | – | – | 4 | > 100 | 5 | 3.6 | 5.7 | > 100 | – |
